The values that follow are results of earlier work, collected in PubChem BioAssay AID1259409 (Chemical Carcinogenesis Research Information System (CCRIS), 2018).

The data set concerns rodent chemically induced tumor inhibition, incidence and multiplicity. Put plainly: CCRIS tumor inhibitor studies.

On to `CC(=O)OC/C=C(C)/C=C/C=C(C)/C=C/C1=C(C)CCCC1(C)C`, for which the “tumour outcome (control, treated, inhibition, significance)” value is, setting by setting: (Carcinogen: 1,2-DIMETHYLHYDRAZINE, 540-73-8, Dose [Inhibitor]: 0.8 MMOL/KG DIET DAILY STARTING 12 D AFTER CARCINOGEN TREATMENT THROUGH ABOUT 8 MO AFTER CARCINOGEN DOSE (STUDY DURATION, Route [Inhibitor]: ORAL, Species: RAT, Strain/Sex: F344/MALE, Target Tissue: Type of Lesion: COLON: ADENOCARCINOMA, Dose [Carcinogen]: 150 MG/KG BW ONCE, Promoter: NONE USED) 10/39 (26%), 7/30 (23%), 12%, not significant; (Carcinogen: 1,2-DIMETHYLHYDRAZINE, 540-73-8, Dose [Inhibitor]: 0.8 MMOL/KG DIET DAILY STARTING 12 D AFTER CARCINOGEN TREATMENT THROUGH ABOUT 8 MO AFTER CARCINOGEN DOSE (STUDY DURATION, Route [Inhibitor]: ORAL, Species: RAT, Strain/Sex: F344/MALE, Target Tissue: Type of Lesion: COLON: ADENOMA, Dose [Carcinogen]: 150 MG/KG BW ONCE, Promoter: NONE USED) 23/39 (59%), 9/30 (30%), 49%, p<0.05; (Carcinogen: 7,12-DIMETHYLBENZ[A]ANTHRACENE, 57-97-6, Dose [Inhibitor]: 0, 328 MG/KG OF DIET FROM DAY 34 TO 54 OF AGE (STUDY DURATION: 200 D), Route [Inhibitor]: ORAL, Species: RAT, Strain/Sex: SPRAGUE-DAWLEY/FEMALE, Target Tissue: Type of Lesion: MAMMARY GLAND: ADENOCARCINOMA, Dose [Carcinogen]: 15 MG/RAT ONCE AT 55 D OF AGE, Promoter: NONE USED) 93%, 97%, -4%, not calculated; (Carcinogen: 7,12-DIMETHYLBENZ[A]ANTHRACENE, 57-97-6, Dose [Inhibitor]: 0, 328 MG/KG OF DIET FROM DAY 34 TO 54 OF AGE (STUDY DURATION: 200 D), Route [Inhibitor]: ORAL, Species: RAT, Strain/Sex: SPRAGUE-DAWLEY/FEMALE, Target Tissue: Type of Lesion: MAMMARY GLAND: BENIGN TUMORS, Dose [Carcinogen]: 15 MG/RAT ONCE AT 55 D OF AGE, Promoter: NONE USED) 28%, 40%, -43%, not calculated; (Carcinogen: 7,12-DIMETHYLBENZ[A]ANTHRACENE, 57-97-6, Dose [Inhibitor]: 0, 350 MG/KG 1/WK FROM 40-90 D OF AGE THEN 0, 250 MG/KG 1/WK FROM 90-180 D OF AGE AND 0, 200 MG/KG 1/WK FROM 180-240 D O, Dose [Inhibitor]: 0, 350 MG/KG 1/WK FROM 40-90 D OF AGE THEN 0, 250 MG/KG 1/WK FROM 90-180 D OF AGE AND 0, 200 MG/KG 1/WK FROM 180-240 D O, Route [Inhibitor]: INTRAPERITONEAL, Species: RAT, Strain/Sex: SPRAGUE DAWLEY/FEMALE, Target Tissue: Type of Lesion: MAMMARY GLAND: ADENOCARCINOMA, FIBROADENOMA, Dose [Carcinogen]: 5 MG IN 0.2 ML SESAME OIL 1/2 D FOR 12 D BEGINNING AT 50 D OF AGE, Promoter: NONE USED) 100%, 48%, 52%, p<0.001; (Carcinogen: 7,12-DIMETHYLBENZ[A]ANTHRACENE, 57-97-6, Dose [Inhibitor]: 0.2 MILLIMOLAR IN DIET DAILY FOR 27 WK STARTING 3 D AFTER LAST CARCINOGEN DOSE AND CONTINUING THE END OF THE STUDY (STUD, Route [Inhibitor]: ORAL, Species: MOUSE, Strain/Sex: BDF/FEMALE, Target Tissue: Type of Lesion: MAMMARY GLAND: ADENOCARCINOMA, Dose [Carcinogen]: 1 MG/WK FOR 6 WK, Promoter: NONE USED) 22/75 (29%), 31/75 (41%), -41%, not significant. For the same compound, the “tumour outcome (control, treated, inhibition, significance)” value is on record as 20/75 (27%), 19/75 (25%), 7%, not significant (Carcinogen: 7,12-DIMETHYLBENZ[A]ANTHRACENE, 57-97-6, Dose [Inhibitor]: 0.2 MILLIMOLAR IN DIET DAILY FOR 27 WK STARTING 3 D AFTER LAST CARCINOGEN DOSE AND CONTINUING THROUGH THE END OF THE STU, Route [Inhibitor]: ORAL, Species: MOUSE, Strain/Sex: BDF/FEMALE, Target Tissue: Type of Lesion: MAMMARY GLAND: ADENOCANTHOMA, Dose [Carcinogen]: 1 MG/WK FOR 6 WK, Promoter: NONE USED); 100%, 92%, 8%, not significant (Carcinogen: 7,12-DIMETHYLBENZ[A]ANTHRACENE, 57-97-6, Dose [Inhibitor]: 68 MG/KG DIET DAILY FOR 11 WK STARTING 3 D AFTER CARCINOGEN TREATMENT (STUDY DURATION: 11 WK), Route [Inhibitor]: ORAL, Species: RAT, Strain/Sex: SPRAGUE-DAWLEY/FEMALE, Target Tissue: Type of Lesion: MAMMARY GLAND: CARCINOMA, Dose [Carcinogen]: 20 MG/ML SESAME OIL ONCE AT 53 D OF AGE, Promoter: NONE USED); 90%, 74%, 18%, not significant (Carcinogen: 7,12-DIMETHYLBENZ[A]ANTHRACENE, 57-97-6, Dose [Inhibitor]: 204 MG/KG DIET DAILY FOR 12 WK STARTING 3 D AFTER CARCINOGEN TREATMENT (STUDY DURATION: 12 WK), Route [Inhibitor]: ORAL, Species: RAT, Strain/Sex: SPRAGUE-DAWLEY/FEMALE, Target Tissue: Type of Lesion: MAMMARY GLAND: CARCINOMA, Dose [Carcinogen]: 10 MG/ML SESAME OIL ONCE AT 53 D OF AGE, Promoter: NONE USED); 90%, 47%, 48%, p<0.001 (Carcinogen: 7,12-DIMETHYLBENZ[A]ANTHRACENE, 57-97-6, Dose [Inhibitor]: 250 MG/KG DIET DAILY FOR 28 WK STARTING 2 WK BEFORE START OF CARCINOGEN TREATMENT AND CONTINUING FOR DURATION OF STUDY (, Route [Inhibitor]: ORAL, Species: RAT, Strain/Sex: SPRAGUE-DAWLEY/FEMALE, Target Tissue: Type of Lesion: MAMMARY GLAND: TUMOR, Dose [Carcinogen]: 5 MG IN CORN OIL 1/WK FOR 3 WK, Promoter: NONE USED); 85%, 60%, 29%, not significant (Carcinogen: 7,12-DIMETHYLBENZ[A]ANTHRACENE, 57-97-6, Dose [Inhibitor]: 328 MG/KG DIET DAILY FOR 20 WK STARTING 3 D AFTER CARCINOGEN TREATMENT (STUDY DURATION: 26 WK), Route [Inhibitor]: ORAL, Species: RAT, Strain/Sex: SPRAGUE-DAWLEY/FEMALE, Target Tissue: Type of Lesion: MAMMARY GLAND: CARCINOMA, Dose [Carcinogen]: 5 MG/ML SESAME OIL ONCE AT 53 D OF AGE, Promoter: NONE USED); 63%, 57%, 10%, not calculated (Carcinogen: DIMETHYLBENZ[A]ANTHRACENE, 57-97-6, Dose [Inhibitor]: 0, 328 MG/KG DIET IN VEHICLE 2 MO PRIOR TO CARCINOGEN DOSE AND CONTINUED UNTIL CARCINOGEN ADMINISTRATION (STUDY DURATION, Route [Inhibitor]: ORAL, Species: RAT, Strain/Sex: CD-1/FEMALE, Target Tissue: Type of Lesion: MAMMARY GLAND: ADENOCARCINOMA, Dose [Carcinogen]: 20 MG IN 1 ML SESAME OIL ONCE, Promoter: NONE USED). In addition, the “tumour outcome (control, treated, inhibition, significance)” value is, setting by setting: (Carcinogen: DIMETHYLBENZ[A]ANTHRACENE, 57-97-6, Dose [Inhibitor]: 0, 328 MG/KG DIET IN VEHICLE 2 MO PRIOR TO CARCINOGEN DOSE AND CONTINUED UNTIL CARCINOGEN ADMINISTRATION (STUDY DURATION, Route [Inhibitor]: ORAL, Species: RAT, Strain/Sex: CD-1/FEMALE, Target Tissue: Type of Lesion: MAMMARY GLAND: BENIGN TUMOR, Dose [Carcinogen]: 20 MG IN 1 ML SESAME OIL ONCE, Promoter: NONE USED) 17%, 50%, -194%, p<0.05; (Carcinogen: ETHYLNITROSOUREA, 759-73-9, Dose [Inhibitor]: 0, 300000 IU KG IN 1:20 (VOLUME: VOLUME) SUNFLOWER OIL IN DIET 5 D/WK FOR LIFE (STUDY DURATION: 319 D), Route [Inhibitor]: ORAL, Species: RAT, Strain/Sex: ALBINO/MALE,FEMALE, Target Tissue: Type of Lesion: NERVOUS SYSTEM: SCHWANNOMA, Dose [Carcinogen]: 75 MG/KG IN SALINE BY INTRAVENOUS INJECTION ONCE 21 D AFTER CONCEPTION) 37/89 (42%), 14/50 (28%), 33%, not calculated; (Carcinogen: ETHYLNITROSOUREA, 759-73-9, Dose [Inhibitor]: 0, 300000 IU/KG IN 1:20 (VOLUME: VOLUME) SUNFLOWER OIL IN DIET 5 D/WK FOR LIFE (STUDY DURATION: 319 D), Route [Inhibitor]: ORAL, Species: RAT, Strain/Sex: ALBINO/MALE,FEMALE, Target Tissue: Type of Lesion: BRAIN: GLIOMA OR ASTROCYTOMA, Dose [Carcinogen]: 75 MG/KG IN SALINE BY INTRAVENOUS INJECTION ONCE 21 D AFTER CONCEPTION) 54/89 (61%), 38/50 (76%), -25%, not calculated; (Carcinogen: ETHYLNITROSOUREA, 759-73-9, Dose [Inhibitor]: 0, 300000 IU/KG IN 1:20 (VOLUME: VOLUME) SUNFLOWER OIL IN DIET 5 D/WK FOR LIFE (STUDY DURATION: 319 D), Route [Inhibitor]: ORAL, Species: RAT, Strain/Sex: ALBINO/MALE,FEMALE, Target Tissue: Type of Lesion: KIDNEY: MESENCHYMAL TUMOR OR ADENOCARCINOMA, Dose [Carcinogen]: 75 MG/KG IN SALINE BY INTRAVENOUS INJECTION ONCE 21 D AFTER CONCEPTION) 33/89 (37%), 14/50 (28%), 24%, not calculated; (Carcinogen: ETHYLNITROSOUREA, 759-73-9, Dose [Inhibitor]: 0, 300000 IU/KG IN 1:20 (VOLUME: VOLUME) SUNFLOWER OIL IN DIET 5 D/WK FOR LIFE (STUDY DURATION: 319 D), Route [Inhibitor]: ORAL, Species: RAT, Strain/Sex: ALBINO/MALE,FEMALE, Target Tissue: Type of Lesion: SPINAL CORD: TUMOR, Dose [Carcinogen]: 75 MG/KG IN SALINE BY INTRAVENOUS INJECTION ONCE 21 D AFTER CONCEPTION) 55/89 (62%), 26/50 (52%), 16%, not calculated; (Carcinogen: METHYLNITROSOUREA, 684-93-5, Dose [Inhibitor]: 0, 328 MG/KG DIET IN VEHICLE 2 MO PRIOR TO CARCINOGEN DOSE AND CONTINUED UNTIL CARCINOGEN ADMINISTRATION (STUDY DURATION, Route [Inhibitor]: ORAL, Species: RAT, Strain/Sex: CD-1/FEMALE, Target Tissue: Type of Lesion: MAMMARY GLAND: ADENOCARCINOMA, Dose [Carcinogen]: 50 MG/KG BW ONCE, Promoter: NONE USED) 57%, 72%), -26%, not calculated. Besides, the “tumour outcome (control, treated, inhibition, significance)” value (Carcinogen: METHYLNITROSOUREA, 684-93-5, Dose [Inhibitor]: 0, 328 MG/KG DIET IN VEHICLE 2 MO PRIOR TO CARCINOGEN DOSE AND CONTINUED UNTIL CARCINOGEN ADMINISTRATION (STUDY DURATION, Route [Inhibitor]: ORAL, Species: RAT, Strain/Sex: CD-1/FEMALE, Target Tissue: Type of Lesion: MAMMARY GLAND: BENIGN TUMOR, Dose [Carcinogen]: 50 MG/KG BW ONCE, Promoter: NONE USED) is 10%, 21%, -110%, not calculated.
